Data reported in patent US12642862B2, “Anti-CD79B antibody-drug conjugate, and preparation method therefor and pharmaceutical use thereof” (TUOJIE BIOTECH (SHANGHAI) CO., LTD., priority 2020, dated 2026).

Columns and labels:
A549 = assay: Test Example 2 in vitro cytotoxic activity (CTG), A549; assay type: cell-based; conditions: A549, 5 days; for IC50: Homo sapiens, 120 h
Description: (§1) In this experiment, the ATP content was determined using CTG to reflect the survival condition of the tumor cells.
(§2) Each of A549, SKBR3 and MDA-MB-468 was digested with pancreatin, resuspended in a culture medium and counted, and the cell density was adjusted to 2.2×10^4 cells/mL. 135 μL of cell suspension was added to each well in columns 2 to 11 of a 96-well plate, and column 12 was set as blank control. The cells were cultured in an incubator at 37° C. with 5% CO2 for 24 h.
(§3) a) Stock solution preparation: the drug was dissolved in DMSO to obtain a stock solution at a concentration of 5 mM.
(§4) b) Plate 1: stock solution in column 1 was initially subjected to a 40-fold dilution, and 3-fold gradient dilutions were performed sequentially in columns 2 to 11. Column 12 was filled with DMSO.
(§5) c) Plate 2: 196 μL of the corresponding culture medium was added to columns 2 to 11, and 4 μL of culture medium was pipetted from columns 3 to 12 of the plate 1 to columns 2 to 11 of the plate 2. The culture medium was mixed well.
(§6) 15 μL of culture medium was pipetted from the plate 2 and added to the cells. The cells were continuously cultured in an incubator at 37° C. with 5% C02 for 5 days.
(§7) 2.4. CTG assay: the plate was taken out and allowed to equilibrate to room temperature. 75 μL of CTG was added to each well and reacted at room temperature for 10 min away from the light. The luminescence value was read using a microplate reader and IC50 was calculated. 2.5. Data Results

MDA-MB-468 = assay: Test Example 2 in vitro cytotoxic activity (CTG), MDA-MB-468; assay type: cell-based; conditions: MDA-MB-468, 5 days; for IC50: Homo sapiens, 120 h
Description: as §1, §2, §3, §4, §5, §6, §7

SKBR3 = assay: Test Example 2 in vitro cytotoxic activity (CTG), SKBR3; assay type: cell-based; conditions: SKBR3, 5 days; for IC50: Homo sapiens, SK-BR-3, 120 h
Description: as §1, §2, §3, §4, §5, §6, §7

[1] = tested on: DOHH-2 cells highly expressing human CD79B protein; assay: Endocytosis of anti-CD79B antibodies in DOHH-2 cells; assay type: cell-based
Description: In order to determine whether the CD79B antibodies of the present disclosure can be endocytosed into cells with human CD79B after binding to human CD79B, a cell endocytosis experiment was performed with DOHH-2 cells (DSMZ, ACC 47) highly expressing human CD79B protein to assess the endocytosis ability of the antibodies.
The cells were collected by low temperature centrifugation at 4° C. for 5 min at 1000 rpm during the experiment. The cells were resuspended in 10-15 mL of FACS buffer pre-cooled on ice. The FACS buffer was composed of phosphate buffered saline (PBS), pH 7.4, with 2% fetal bovine serum (FBS). Throughout the experiment, FACS buffer was pre-cooled on ice. The cells were counted and centrifuged, and added to a 96-well plate at 300,000 cells/well. After centrifugation, the supernatant was discarded, and 12.5 μg/mL Fc blocking solution (BD, Cat No.: 564220) was added at 100 μL/well. Blocking was performed at room temperature for 10 min. Then, 20 μg/mL test CD79B antibody was added to the corresponding wells, and the plate was incubated at 4° C. for 1 h away from the light. The plate was washed twice with a pre-cooled PBS buffer to remove unbound antibodies. A complete cell culture medium (RPMI 1640 medium with 10% fetal bovine serum) was added, and the plate was incubated at 37° C. with 5% CO2 for 0 h, 1 h, 2 h and 4 h. After centrifugation, the supernatant was discarded, 2% PFA buffer solution was added at 100 μL/well to resuspend the cells, and the plate was left to stand for 10 min. Then, the plate was washed 3 times with an FACS buffer, and 100 μL of secondary antibody solution (fluorescent labeled goat anti-human secondary antibody: diluted in a 1:250 ratio, 2 μg/mL, Biolegend, Cat #409304) was added. The plate was incubated at 4° C. for half an hour away from the light. A pre-cooled PBS buffer was added, and the supernatant was discarded after centrifugation at 4° C., which were repeated three times. The cells were resuspended in an FACS buffer at 200 μL/well and detected using a flow cytometer (BD FACS Calibur).

human CD79B [2] = biological target: T1, human CD79B (Homo sapiens, UniProt P40259); assay: ELISA of purified anti-human CD79B mouse monoclonal antibodies; assay type: binding; set-up: the extracellular region (ECD) of human CD79B comprises 159 amino acids (Met1-Asp159); made in house; host or cells: 293F cells; conditions: purified antibodies diluted 1:10 from 100 nM; FIG. 8
T1 sequence (P40259 29-159 limits assumed): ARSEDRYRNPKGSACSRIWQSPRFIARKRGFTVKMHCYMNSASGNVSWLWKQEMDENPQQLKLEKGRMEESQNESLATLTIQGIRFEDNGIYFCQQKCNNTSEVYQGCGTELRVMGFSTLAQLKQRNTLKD
Description: (§8) 2) Assay on anti-human CD79B mouse monoclonal antibodies by ELISA A 96-well plate was coated with 1 μg/mL antigen at 50 μL/well and incubated in a refrigerator at 4° C. overnight. The next day, the coated antigen plate was washed once (washing solution: 1×PBST). After washing, the plate was blocked with 1% BSA blocking solution prepared in 1×PBST at 37° C. for 1 h. After washing the plate 3 times with 1×PBST, 50 μL of antibody diluted in a 1:10 ratio from 100 nM was added, and the plate was incubated in an incubator at 37° C. for 1 h. After washing the plate 3 times with 1×PBST, 100 μL of goat anti-mouse secondary antibody diluted in a 1:5000 ratio was added, and the plate was incubated in an incubator at 37° C. for 0.5 h. After washing the plate, TMB color development solutions A and B were mixed in a 1:1 ratio for color development. 15 min later, the color development reaction was stopped with 1 N hydrochloric acid. […] value was read at 450 nm on a Spectra Max M5 microplate reader.

[3] = biological target: T2, CD79B protein on the surface of DoHH2 cells (Homo sapiens, UniProt P40259); assay: FACS of anti-human CD79B hybridoma positive clones; assay type: binding
T2 construct: endogenous in cells; host or cells: DoHH2 (DOHH-2) cells
T2 sequence (P40259 29-229): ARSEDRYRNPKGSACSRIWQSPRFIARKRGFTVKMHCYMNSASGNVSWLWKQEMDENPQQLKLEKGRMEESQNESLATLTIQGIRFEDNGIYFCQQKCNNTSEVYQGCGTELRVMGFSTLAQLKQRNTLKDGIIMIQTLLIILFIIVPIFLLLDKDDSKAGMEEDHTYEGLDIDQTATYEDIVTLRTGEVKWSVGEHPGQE
T2 sequence (P11912 33-226 partner): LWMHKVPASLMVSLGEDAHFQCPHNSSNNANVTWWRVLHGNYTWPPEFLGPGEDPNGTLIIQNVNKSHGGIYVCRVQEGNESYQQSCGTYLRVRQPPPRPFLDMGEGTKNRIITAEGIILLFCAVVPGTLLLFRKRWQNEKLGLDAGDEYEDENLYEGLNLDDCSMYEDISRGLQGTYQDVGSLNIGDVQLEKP
Description: 4) FACS screening The suspension of DoHH2 cells was centrifuged, resuspended in PBS containing 0.1% BSA, and counted. The test serum was added, and the cells were incubated at room temperature for 60 min and washed. Then Anti-Mouse IgG (Fc specific)-FITC secondary antibody was added, and the cells were incubated at room temperature for 30 min away from the light, washed three times, gently resuspended in PBS containing 0.1% BSA, and loaded on the machine for assay.
(§9) 5) Identification of hybridoma positive clones A plurality of specific antibodies against human CD79B antigen were obtained; and 17 strains of hybridomas having strongest binding force to ELISA and FACS in assays were taken for production and purification of antibodies. Specific antibodies against monkey CD79B antigen were also obtained; and 4 strains of hybridomas having strongest binding force to ELISA and FACS in assays were taken for production and purification of antibodies. Assay results of anti-monkey CD79B hybridoma positive clone cells by FACS are shown in Table 4. mIgG was used as negative control in the both assays.

[4] = biological target: T2, CD79B protein on the surface of DoHH2 cells; assay: FACS of purified anti-human CD79B mouse monoclonal antibodies on DoHH2 cells; assay type: binding
Description: 3) Assay on anti-human CD79B mouse monoclonal antibodies by FACS The cell suspension of DoHH2 cells was centrifuged, resuspended in PBS containing 0.1% BSA, and counted. 100 μL of antibody diluted in a 1:10 ratio from 100 nM was added, and the cells were incubated at room temperature for 1 h and washed three times. Then Anti-Mouse IgG (Fc specific)-FITC secondary antibody was added, and the cells were incubated at room temperature for 30 min away from the light, washed three times, gently resuspended in PBS containing 0.1% BSA, and loaded on the machine for assay. […] The specific data are shown in FIGS. 9A and 9B, in which hIgG1 is a negative control antibody and SN8 is a positive control antibody. SN8 is an antibody (reference sequence source: US20170362318A) used in the antibody-drug conjugate polatuzumab vedotin developed by Roche pharmaceutical. Polatuzumab vedotin has been approved by the FDA for marketing.

human CD79B [5] = biological target: T1, human CD79B; assay: ELISA of anti-human CD79B hybridoma positive clones; assay type: binding; set-up: the extracellular region (ECD) of human CD79B comprises 159 amino acids (Met1-Asp159); made in house; host or cells: 293F cells; conditions: hybridoma cell supernatant, read at 450 nm
Description: as §8, with “3)” for “2) Assay on anti-human CD79B mouse monoclonal antibodies by”, “ELISA screening” for “ELISA”, “the test cell supernatant” for “antibody diluted in a 1:10 ratio from 100 nM”
as §9

| Molecule | Maximum inhibition (%) (A549) | IC50 (A549) [nM] | IC50 (MDA-MB-468) [nM] | Maximum inhibition (%) (MDA-MB-468) | IC50 (SKBR3) [nM] | Maximum inhibition (%) (SKBR3) | endocytosis by DOHH-2 cells at 4° C. ([1]; 20 μg/mL antibody, incubation at 4° C.) | endocytosis by DOHH-2 cells at 37° C. after 1 h ([1]; 20 μg/mL antibody, incubation at 37° C., 1 h) | endocytosis, overall judgement ([1]; DOHH-2 cells) | time at which antibody endocytosis reaches a maximum ([1]; incubation at 37° C.) [h] | ELISA binding force (human CD79B [2]) | Mean fluorescence value [3] | FACS binding force ([4]; antibodies diluted 1:10 from 100 nM, FIGS. 9A, 9B) | FACS binding force compared with SN8 ([4]; positive control antibody SN8) | Results (OD450) (human CD79B [5]) |
| --- | --- | --- | --- | --- | --- | --- | --- | --- | --- | --- | --- | --- | --- | --- | --- |
| C=C1C[C@@H]2CC[C@@]34C[C@H]5O[C@H]6[C@@H](O3)[C@H]3O[C@H](CC[C@@H]3O[C@H]6[C@H]5O4)CC(=O)C[C@@H]3[C@@H](OC)[C@@H](C[C@@H](CNC)OC)O[C@H]3C[C@H]3O[C@@H](CC[C@@H]1O2)C[C@@H](C)C3=C [D-2] | 62.09 | 3.08 | 1.88 | 89.43 | 1.09 | 96.85 |  |  |  |  |  |  |  |  |  |
| C=C1C[C@@H]2CC[C@@]34C[C@H]5O[C@H]6[C@@H](O3)[C@H]3O[C@H](CC[C@@H]3O[C@H]6[C@H]5O4)CC(=O)C[C@@H]3[C@@H](OC)[C@@H](C[C@H](O)CO)O[C@H]3C[C@H]3O[C@@H](CC[C@@H]1O2)C[C@@H](C)C3=C [E1-30] | 62.46 | 0.781 | 0.36 | 90.49 | 0.166 | 96.15 |  |  |  |  |  |  |  |  |  |
| C=C1C[C@@H]2CC[C@@]34C[C@H]5O[C@H]6[C@@H](O3)[C@H]3O[C@H](CC[C@@H]3O[C@H]6[C@H]5O4)CC(=O)C[C@@H]3[C@@H](OC)[C@@H](C[C@H](O)CNC)O[C@H]3C[C@H]3O[C@@H](CC[C@@H]1O2)C[C@@H](C)C3=C [E-305] | 61.27 | 2.1 | 1.17 | 88.53 | 0.571 | 96.42 |  |  |  |  |  |  |  |  |  |
| SN8 [reference compound] |  |  |  |  |  |  | cannot be endocytosed by DOHH-2 cells | most of the antibodies are already endocytosed by DOHH-2 cells | good endocytosis | 4 |  |  |  |  |  |
| mAb015: anti-human CD79B mouse monoclonal antibody, clone 83B2G2; VH SEQ ID NO: 3, VL SEQ ID NO: 4 (antibody, listed as Mus musculus, V domains shown) VH: QVQLQQSGAELARPGASVKLSCKASGSSFTSYGINWVKQRTGQGLEWIGEIFPRSGNTYYNEKFEGKATLTADKSSSTAYMELRSLTSEDSAVYFCAKGDLGDFDYWGQGTTLTVSS VL: DFLMTQTPLSLPVRLGDQASISCRSSQSIVHSDGNTYFEWYLQKPGQSPKLLIYKVSNRFSGVPDRFSGSGSGTDFTLKISRVEAEDLGVYYCFQGSHVPWTFGGGTKLEIK |  |  |  |  |  |  |  |  |  |  | strongest ELISA binding force | 10036 | strongest FACS binding force | superior binding force to SN8 | 3.41 |
